Reference: the supplement of paper PMC10307832

Columns and labels:
Test in all cases: relative viability (nuclei count vs DMSO), 5 days (fraction); higher = more cells survive
RU-SKI 43 + Navitoclax = compound: CC[C@@H](C)CNCC(=O)N1CCC2=C([C@@H]1COC3=CC=CC(=C3)C)C=CS2 [RU-SKI 43] + CC1(C)CCC(c2ccc(Cl)cc2)=C(CN2CCN(c3ccc(C(=O)NS(=O)(=O)c4ccc(N[C@H](CCN5CCOCC5)CSc5ccccc5)c(S(=O)(=O)C(F)(F)F)c4)cc3)CC2)C1 [Navitoclax] (partner 0.5 µM)
Summary of the method: (§1)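 For relative viability, nuclei counts in treated wells were divided by those in vehicle wells. Lung cancer cell lines had been pin-tool dosed in 1536-well plates the day after seeding and cultured for 5 days, then fixed and stained in one step (final 0.05% Triton X-100, 1% formaldehyde, 1 ug/ml Hoechst) and imaged at 4×. Doses were one drug alone or a fixed anchor-drug dose plus five library-drug doses (not always all listed) in √10 steps, and values are duplicate-plate medians.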

RU-SKI 43 + AZD7762 = compound: CC[C@@H](C)CNCC(=O)N1CCC2=C([C@@H]1COC3=CC=CC(=C3)C)C=CS2 [RU-SKI 43] + NC(=O)Nc1cc(-c2cccc(F)c2)sc1C(=O)N[C@H]1CCCNC1 [AZD7762] (partner 0.2 µM)
Summary of the method: as §1

Irinotecan + Palbociclib = compound: CCc1c2c(nc3ccc(OC(=O)N4CCC(N5CCCCC5)CC4)cc13)-c1cc3c(c(=O)n1C2)COC(=O)[C@]3(O)CC [Irinotecan] + CC(=O)c1c(C)c2cnc(Nc3ccc(N4CCNCC4)cn3)nc2n(C2CCCC2)c1=O [Palbociclib] (partner 0.5 µM)
Summary of the method: as §1

MK-8033 + Palbociclib = compound: Cn1cc(-c2cnc3ccc4ccc(CS(=O)(=O)NCc5ccccn5)cc4c(=O)c3c2)cn1 [MK-8033] + CC(=O)c1c(C)c2cnc(Nc3ccc(N4CCNCC4)cn3)nc2n(C2CCCC2)c1=O [Palbociclib] (partner 0.5 µM)
Summary of the method: as §1

Cell Line | relative viability (RU-SKI 43 + Navitoclax; first compound 0.1 µM) | relative viability (RU-SKI 43 + Navitoclax; first compound 0.3162 µM) | relative viability (RU-SKI 43 + Navitoclax; first compound 1 µM) | relative viability (RU-SKI 43 + Navitoclax; first compound 3.162 µM) | relative viability (RU-SKI 43 + Navitoclax; first compound 10 µM) | relative viability (RU-SKI 43 + AZD7762; first compound 0.1 µM) | relative viability (RU-SKI 43 + AZD7762; first compound 0.3162 µM) | relative viability (RU-SKI 43 + AZD7762; first compound 1 µM) | relative viability (RU-SKI 43 + AZD7762; first compound 3.162 µM) | relative viability (RU-SKI 43 + AZD7762; first compound 10 µM) | relative viability (Irinotecan + Palbociclib; first compound 0.6325 µM) | relative viability (Irinotecan + Palbociclib; first compound 2 µM) | relative viability (Irinotecan + Palbociclib; first compound 6.325 µM) | relative viability (Irinotecan + Palbociclib; first compound 20 µM) | relative viability (MK-8033 + Palbociclib; first compound 0.02 µM) | relative viability (MK-8033 + Palbociclib; first compound 0.06325 µM) | relative viability (MK-8033 + Palbociclib; first compound 0.2 µM) | relative viability (MK-8033 + Palbociclib; first compound 0.6325 µM) | relative viability (MK-8033 + Palbociclib; first compound 2 µM)
NCI-H838 | 1.17 | 1.31 | 1.27 | 1.22 | 1.1 | 0.933 | 1.03 | 1 | 0.987 | 0.876 | 0.261 | 0.25 | 0.207 | 0.171 | 0.213 | 0.207 | 0.217 | 0.213 | 0.22
NCI-H1975 | 1.06 | 1.45 | 1.07 | 1.07 | 1.07 | 0.763 | 0.748 | 0.97 | 0.671 | 0.803 | 0.304 | 0.557 | 0.314 | 0.219 | 0.579 | 0.469 | 0.51 | 0.339 | 0.602
NCI-H2170 | 0.499 | 0.64 | 0.643 | 0.625 | 0.58 | 0.846 | 1.07 | 0.959 | 0.866 | 0.882 | 0.356 | 0.248 | 0.159 | 0.143 | 0.392 | 0.345 | 0.372 | 0.388 | 0.391
NCI-H647 | 1.12 | 1.29 | 1.26 | 1.23 | 1.15 | 0.358 | 0.553 | 0.583 | 0.44 | 0.499 | 0.311 | 0.31 | 0.136 | 0.0705 | 0.365 | 0.338 | 0.351 | 0.404 | 0.43
A-427 | 0.944 | 0.868 | 0.997 | – | 0.961 | 0.726 | 0.761 | 0.765 | 0.851 | 0.674 | 0.499 | 0.487 | 0.292 | 0.132 | 0.481 | 0.552 | 0.494 | 0.508 | 0.492
HCC-366 | 1.04 | 1.5 | 1.06 | 1.18 | 1.05 | 0.268 | 0.252 | 0.321 | 0.34 | 0.216 | 0.228 | 0.18 | 0.0611 | 0.0667 | 0.417 | 0.343 | 0.355 | 0.367 | 0.351
CAL-12T | 1.2 | 1.53 | 1.54 | 1.13 | 1.14 | 0.644 | 0.735 | 0.698 | 0.714 | 0.648 | 0.316 | 0.344 | 0.251 | 0.197 | 0.44 | 0.436 | 0.324 | 0.579 | 0.323
